Data taken from patent US8895571B2, “Isoindolinone and pyrrolopyridinone derivatives as Akt inhibitors” (Incyte Corporation, priority 2011, dated 2014).

Experiments:
Full length PKA = biological target: T1, Full length PKA (Homo sapiens, UniProt P17612); assay: PKA in vitro enzymatic assay (HTRF); format: biochemical; conditions: 0.035 nM enzyme solution, substrate solution with 5 mM ATP, 25° C. 1 hr
T1 construct: Full length PKA (cat #P2912); purchased Invitrogen P2912
Summary of the method: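 Reaction buffer was 50 mM HEPES pH 7.8, 10 mM MgCl2, 5 mM DTT and 0.005% Tween20. Enzyme solution was 0.035 nM, and substrate solution was 0.1 μM fluorescein-CREBtide with 5 mM ATP. After 1 h at 25°C, EDTA plus Tb anti-pS133 antibody was added, TR-FRET was read, and IC50 was fitted from 11-point, 3-fold % inhibition curves.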

[1] = test system: LNCaP cells (human prostate tumor cell line); assay: Akt LNCaP proliferation assay (MTS); format: cell-based; conditions: 48 hours
Summary of the method: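 Cells plated at 10,000/well in RPMI with 2% FBS overnight at 37° C., 5% CO2, then exposed to compound at 1000 nM to 0.5 nM (3-fold dilutions) for 48 hours. Viable cells measured by MTS colorimetric read-out after 2 hours; IC50 taken as concentration giving 50% inhibition of total proliferation.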

Full length Akt1 = biological target: T2, Full length Akt1 (Homo sapiens, UniProt P31749); assay: In vitro Akt kinase enzymatic assay (HTRF), Akt1; format: biochemical; conditions: 0.4 nM Akt1, substrate solution with 5 mM ATP, 25° C. 1 hr
T2 construct: Full length Akt1 (cat #P2999); purchased PerkinElmer P2999
Summary of the method: (§1)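 Full-length enzyme (0.4 nM Akt1 or 0.6 nM Akt2/Akt3 in the enzyme solution) was combined with a substrate solution of 0.1 μM ULight-Crosstide plus 5 mM ATP in pH 7.8 HEPES/MgCl2/DTT/Tween20 buffer and reacted 1 hr at 25° C. The EDTA stop contained Eu anti-phospho-Crosstide; IC50 was fitted from 11-point HTRF inhibition curves.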

Full length Akt3 = biological target: T3, Full length Akt3 (Homo sapiens, UniProt Q9Y243); assay: In vitro Akt kinase enzymatic assay (HTRF), Akt3; format: biochemical; conditions: 0.6 nM Akt3, substrate solution with 5 mM ATP, 25° C. 1 hr
T3 construct: Full length Akt1 (cat #P2999), Akt2 (cat #PV3184), Akt3 (cat #PV3185); purchased PerkinElmer PV3185
Summary of the method: as §1

Full length Akt2 = biological target: T4, Full length Akt2 (Homo sapiens, UniProt P31751); assay: In vitro Akt kinase enzymatic assay (HTRF), Akt2; format: biochemical; conditions: 0.6 nM Akt2, substrate solution with 5 mM ATP, 25° C. 1 hr
T4 construct: Full length Akt1 (cat #P2999), Akt2 (cat #PV3184); purchased PerkinElmer PV3184
Summary of the method: as §1

[2] = given as a bound, final concentrations 1000 nM to 0.5 nM
[3] = 2% fetal bovine serum, class symbols

T3 sequence (Q9Y243 whole entry): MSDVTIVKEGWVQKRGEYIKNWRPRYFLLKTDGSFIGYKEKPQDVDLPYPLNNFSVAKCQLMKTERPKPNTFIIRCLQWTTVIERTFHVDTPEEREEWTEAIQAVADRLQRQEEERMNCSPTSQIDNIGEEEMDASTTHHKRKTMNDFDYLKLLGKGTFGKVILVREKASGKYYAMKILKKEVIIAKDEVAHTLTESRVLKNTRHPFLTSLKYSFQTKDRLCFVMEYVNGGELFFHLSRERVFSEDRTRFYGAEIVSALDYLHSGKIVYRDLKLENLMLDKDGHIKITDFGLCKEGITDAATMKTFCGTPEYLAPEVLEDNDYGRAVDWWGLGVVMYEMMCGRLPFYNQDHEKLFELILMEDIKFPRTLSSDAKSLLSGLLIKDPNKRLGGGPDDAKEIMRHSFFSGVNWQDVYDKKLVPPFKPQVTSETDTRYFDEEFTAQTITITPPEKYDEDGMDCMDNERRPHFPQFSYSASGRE
T4 sequence (P31751 whole entry): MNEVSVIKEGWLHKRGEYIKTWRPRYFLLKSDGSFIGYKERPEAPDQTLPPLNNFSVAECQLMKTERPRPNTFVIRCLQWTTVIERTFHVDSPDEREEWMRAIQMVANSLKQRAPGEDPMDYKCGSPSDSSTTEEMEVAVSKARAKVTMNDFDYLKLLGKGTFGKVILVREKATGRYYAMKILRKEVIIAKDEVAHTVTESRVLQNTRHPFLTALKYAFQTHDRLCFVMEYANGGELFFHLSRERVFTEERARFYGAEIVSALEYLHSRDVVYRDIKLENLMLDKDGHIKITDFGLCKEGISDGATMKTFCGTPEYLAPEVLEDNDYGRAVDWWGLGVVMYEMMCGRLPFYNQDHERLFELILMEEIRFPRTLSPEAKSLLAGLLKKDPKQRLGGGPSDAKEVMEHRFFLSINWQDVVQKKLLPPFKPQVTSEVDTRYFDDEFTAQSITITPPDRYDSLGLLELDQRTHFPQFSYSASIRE
T2 sequence (P31749 whole entry): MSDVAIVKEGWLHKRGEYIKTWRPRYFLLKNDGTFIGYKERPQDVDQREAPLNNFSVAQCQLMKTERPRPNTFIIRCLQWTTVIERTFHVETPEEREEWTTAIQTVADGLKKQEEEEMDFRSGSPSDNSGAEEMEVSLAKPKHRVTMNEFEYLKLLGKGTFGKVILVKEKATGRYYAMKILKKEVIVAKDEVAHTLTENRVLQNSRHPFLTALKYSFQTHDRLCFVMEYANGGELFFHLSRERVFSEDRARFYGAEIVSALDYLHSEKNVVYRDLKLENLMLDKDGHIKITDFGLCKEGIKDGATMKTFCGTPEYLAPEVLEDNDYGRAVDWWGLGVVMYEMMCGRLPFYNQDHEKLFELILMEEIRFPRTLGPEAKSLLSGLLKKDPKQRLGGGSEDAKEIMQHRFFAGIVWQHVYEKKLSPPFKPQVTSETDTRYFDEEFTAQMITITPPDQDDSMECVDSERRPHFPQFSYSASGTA

IC50 (Full length PKA) [µM]	IC50 [1, 2] [nM]	IC50 (Full length Akt1) [nM]	IC50 (Full length Akt3) [nM]	IC50 (Full length Akt2) [nM]	IC50 [1, 3] [nM]	Structure (SMILES)
> 5	> 1000	500 to 5000	> 5000	> 5000	–	Cn1ncc(Cl)c1-c1ccc2c(c1)CN([C@H](CN)Cc1cccc(-c3cncnc3)c1)C2=O [Example 74, 2-[(1S)-2-amino-1-(3-pyrimidin-5-ylbenzyl)ethyl]-5-(4-chloro-1-methyl-1H-pyrazol-5-yl)isoindolin-1-one]
> 5	–	< 500	500 to 5000	< 500	< 500	Cn1nccc1-c1ccc2c(c1)CN([C@H](CN)Cc1cccnc1)C2=O [Example 78, 2-[(1S)-2-amino-1-(pyridin-3-ylmethyl)ethyl]-5-(1-methyl-1H-pyrazol-5-yl)isoindolin-1-one]
> 5	–	< 500	500 to 5000	< 500	500 to 5000	Cn1nccc1-c1ccc2c(c1)CN([C@H](CN)Cc1ccccn1)C2=O [Example 79, 2-[(1S)-2-amino-1-(pyridin-2-ylmethyl)ethyl]-5-(1-methyl-1H-pyrazol-5-yl)isoindolin-1-one]
0.5 to 5	–	< 500	< 500	< 500	< 500	Cn1nccc1-c1ccc2c(c1)CN([C@H](CN)Cc1cccs1)C2=O [Example 80, 2-[(1S)-2-amino-1-(2-thienylmethyl)ethyl]-5-(1-methyl-1H-pyrazol-5-yl)isoindolin-1-one]
0.5 to 5	–	< 500	< 500	< 500	< 500	Cn1nccc1-c1ccc2c(c1)CN([C@H](CN)Cc1ccsc1)C2=O [Example 81, 2-[(1S)-2-amino-1-(3-thienylmethyl)ethyl]-5-(1-methyl-1H-pyrazol-5-yl)isoindolin-1-one]
> 5	> 1000	> 5000	> 5000	> 5000	–	Cn1nccc1-c1ccc2c(c1)CN([C@H](CN)Cc1cccc(-c3ccncc3)c1)C2=O [Example 85, 2-[(1S)-2-amino-1-(3-pyridin-4-ylbenzyl)ethyl]-5-(1-methyl-1H-pyrazol-5-yl)isoindolin-1-one]
> 5	> 1000	500 to 5000	> 5000	> 5000	–	Cn1nccc1-c1ccc2c(c1)CN([C@H](CN)Cc1cccc(-c3cncnc3)c1)C2=O [Example 87, 2-[(1S)-2-amino-1-(3-pyrimidin-5-ylbenzyl)ethyl]-5-(1-methyl-1H-pyrazol-5-yl)isoindolin-1-one]
> 5	–	< 500	< 500	< 500	< 500	Cn1ncc(Cl)c1-c1cnc2c(c1)CN([C@H](CN)Cc1cccc(F)c1)C2=O [Example 90, 6-[(1S)-2-amino-1-(3-fluorobenzyl)ethyl]-3-(4-chloro-1-methyl-1H-pyrazol-5-yl)-5,6-dihydro-7H-pyrrolo[3,4-b]pyridin-7-one]
0.5 to 5	–	< 500	< 500	< 500	< 500	Cn1ncc(Cl)c1-c1cc2c(cn1)C(=O)N([C@H](CN)Cc1cccc(F)c1)C2 [Example 92, 2-[(1S)-2-amino-1-(3-fluorobenzyl)ethyl]-6-(4-chloro-1-methyl-1H-pyrazol-5-yl)-1,2-dihydro-3H-pyrrolo[3,4-c]pyridin-3-one]
0.5 to 5	–	< 500	< 500	< 500	< 500	Cn1nccc1-c1cc2c(cn1)C(=O)N([C@H](CN)Cc1cccc(F)c1)C2 [Example 93, 2-[(1S)-2-amino-1-(3-fluorobenzyl)ethyl]-6-(1-methyl-1H-pyrazol-5-yl)-1,2-dihydro-3H-pyrrolo[3,4-c]pyridin-3-one]
0.5 to 5	–	< 500	< 500	< 500	< 500	Cc1cnn(C)c1-c1cc2c(cn1)C(=O)N([C@H](CN)Cc1cccc(F)c1)C2 [Example 94, 2-[(1S)-2-amino-1-(3-fluorobenzyl)ethyl]-6-(4-methyl-1-methyl-1H-pyrazol-5-yl)-1,2-dihydro-3H-pyrrolo[3,4-c]pyridin-3-one]
> 5	–	< 500	< 500	< 500	< 500	CC(C)OCc1cnn(C)c1-c1cc2c(cn1)C(=O)N([C@H](CN)Cc1cccc(F)c1)C2 [Example 95, 2-[(1S)-2-amino-1-(3-fluorobenzyl)ethyl]-6-[4-(2-propoxymethyl)-1-methyl-1H-pyrazol-5-yl]-1,2-dihydro-3H-pyrrolo[3,4-c]pyridin-3-one]

Continued, molecule first:

Structure (SMILES)	IC50 (Full length PKA) [µM]	IC50 [1, 2] [nM]	IC50 (Full length Akt1) [nM]	IC50 (Full length Akt3) [nM]	IC50 (Full length Akt2) [nM]	IC50 [1, 3] [nM]
Cn1ncc(Cl)c1-c1ccc2c(c1)CN([C@H](CN)Cc1cccc(-c3cccnc3)c1)C2=O [Example 73, 2-[(1S)-2-amino-1-(3-pyridin-3-ylbenzyl)ethyl]-5-(4-chloro-1-methyl-1H-pyrazol-5-yl)isoindolin-1-one]	> 5	> 1000	500 to 5000	500 to 5000	> 5000	–
Cn1nccc1-c1ccc2c(c1)CN([C@H](CN)Cc1cccc(C#N)c1)C2=O [Example 75, 3-{(2S)-3-amino-2-[5-(1-methyl-1H-pyrazol-5-yl)-1-oxo-1,3-dihydro-2H-isoindol-2-yl]propyl}benzonitrile]	> 5	–	500 to 5000	500 to 5000	< 500	< 500
Cn1nccc1-c1ccc2c(c1)CN([C@H](CN)Cc1csc3ccccc13)C2=O [Example 76, 2-[(1S)-2-amino-1-(1-benzothien-3-ylmethyl)ethyl]-5-(1-methyl-1H-pyrazol-5-yl)isoindolin-1-one]	> 5	–	< 500	< 500	< 500	< 500
Cn1nccc1-c1ccc2c(c1)CN([C@H](CN)Cc1cccc(-c3cccnc3)c1)C2=O [Example 86, 2-[(1S)-2-amino-1-(3-pyridin-3-ylbenzyl)ethyl]-5-(1-methyl-1H-pyrazol-5-yl)isoindolin-1-one]	> 5	> 1000	500 to 5000	> 5000	> 5000	–
C#Cc1cccc(C[C@@H](CN)N2Cc3cc(-c4ccnn4C)ccc3C2=O)c1 [Example 88, 2-[(1S)-2-amino-1-(3-ethynylbenzyl)ethyl]-5-(1-methyl-1H-pyrazol-5-yl)isoindolin-1-one]	0.5 to 5	–	< 500	< 500	< 500	< 500
C#Cc1cccc(C[C@@H](CN)N2Cc3cc(-c4c(Cl)cnn4C)ccc3C2=O)c1 [Example 89, 2-[(1S)-2-amino-1-(3-ethynylbenzyl)ethyl]-5-(4-chloro-1-methyl-1H-pyrazol-5-yl)isoindolin-1-one]	0.5 to 5	–	< 500	< 500	< 500	< 500
Cn1ncc(Br)c1-c1cnc2c(c1)CN([C@H](CN)Cc1cccc(F)c1)C2=O [Example 91, 6-[(1S)-2-amino-1-(3-fluorobenzyl)ethyl]-3-(4-bromo-1-methyl-1H-pyrazol-5-yl)-5,6-dihydro-7H-pyrrolo[3,4-b]pyridin-7-one]	> 5	–	< 500	< 500	< 500	< 500
Cn1ncc(COC2CCC2)c1-c1cc2c(cn1)C(=O)N([C@H](CN)Cc1cccc(F)c1)C2 [Example 97, 2-[(1S)-2-amino-1-(3-fluorobenzyl)ethyl]-6-[4-(cyclobutoxymethyl)-1-methyl-1H-pyrazol-5-yl]-1,2-dihydro-3H-pyrrolo[3,4-c]pyridin-3-one]	> 5	–	< 500	< 500	< 500	< 500
Cn1ncc(Cl)c1-c1cc2c(cn1)C(=O)N([C@H](CN)Cc1ccccc1)C2 [Example 100, 2-((1S)-2-amino-1-benzylethyl)-6-(4-chloro-1-methyl-1H-pyrazol-5-yl)-1,2-dihydro-3H-pyrrolo[3,4-c]pyridin-3-one]	0.5 to 5	–	< 500	< 500	< 500	< 500
Cn1ncc(Cl)c1-c1cc2c(cn1)C(=O)N([C@H](CN)Cc1cc(F)cc(F)c1)C2 [Example 101, 2-[(1S)-2-amino-1-(3,5-difluorobenzyl)ethyl]-6-(4-chloro-1-methyl-1H-pyrazol-5-yl)-1,2-dihydro-3H-pyrrolo[3,4-c]pyridin-3-one]	0.5 to 5	–	< 500	< 500	< 500	< 500
